Numbered stars: 1 amine (or outer) side, 2 acyl side, 3 side chain; on linkers, the order of the positions; unused ones are H or OH. Side chains are listed from the residue outwards. Peptide text beside a SMILES is read from it. * marks the point of attachment. C18 diacid = O=C(O)CCCCCCCCCCCCCCCCC(=O)*; γGlu = O=C(O)[C@H](CCC(=O)[*:2])N[*:1]; AEEA = NCCOCCOCC(=O)O
Target: glucagon receptor (Homo sapiens, UniProt P47871)
Test: cell-based

Sequence of glucagon receptor (P47871 26-477): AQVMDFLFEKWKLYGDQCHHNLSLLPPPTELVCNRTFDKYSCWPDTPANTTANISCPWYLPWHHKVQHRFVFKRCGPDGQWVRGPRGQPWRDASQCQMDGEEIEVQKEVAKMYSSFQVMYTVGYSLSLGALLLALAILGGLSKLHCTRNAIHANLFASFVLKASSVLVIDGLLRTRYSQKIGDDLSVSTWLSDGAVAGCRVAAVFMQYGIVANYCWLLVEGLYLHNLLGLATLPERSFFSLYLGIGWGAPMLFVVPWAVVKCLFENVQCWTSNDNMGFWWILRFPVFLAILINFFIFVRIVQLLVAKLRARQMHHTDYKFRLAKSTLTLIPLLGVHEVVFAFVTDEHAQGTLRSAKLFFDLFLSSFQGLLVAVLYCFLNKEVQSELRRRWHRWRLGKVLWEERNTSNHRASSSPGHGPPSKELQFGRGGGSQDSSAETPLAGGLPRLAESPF

Structure (SMILES) | EC50
CC(C)C[C@H](NC(=O)[C@H](Cc1ccc(O)cc1)NC(=O)[C@H](CCCCN)NC(=O)[C@H](CO)NC(=O)[C@H](Cc1ccc(O)cc1)NC(=O)[C@H](CC(=O)O)NC(=O)[C@H](CO)NC(=O)[C@@H](NC(=O)[C@H](Cc1ccccc1)NC(=O)[C@@H](NC(=O)CNC(=O)[C@H](CCC(N)=O)NC(=O)[C@H](CO)NC(=O)[C@@H](N)Cc1c[nH]cn1)[C@@H](C)O)[C@@H](C)O)C(=O)N[C@@H](CC(=O)O)C(=O)N[C@@H](CCCCNC(=O)COCCOCCNC(=O)COCCOCCNC(=O)CC[C@H](NC(=O)CCCCCCCCCCCCCCCCC(=O)O)C(=O)O)C(=O)N[C@@H](CCCCN)C(=O)N[C@@H](CCCNC(=N)N)C(=O)N[C@@H](C)C(=O)N[C@@H](CCC(N)=O)C(=O)N[C@@H](CCC(=O)O)C(=O)N[C@@H](Cc1ccccc1)C(=O)N[C@H](C(=O)N[C@@H](CCC(N)=O)C(=O)N[C@@H](Cc1c[nH]c2ccccc12)C(=O)N[C@@H](CC(C)C)C(=O)N[C@@H](CC(C)C)C(=O)N[C@@H](CC(N)=O)C(=O)N[C@H](C(N)=O)[C@@H](C)O)C(C)C [Example 34, N^ε16-([2-[2-[2-[[2-[2-[2-[[(4S)-5-hydroxy-4-[(18-hydroxy-18-oxooctadecanoyl)amino]-5-oxopentanoyl]amino]ethoxy]ethoxy]acetyl]amino]ethoxy]ethoxy]acetyl])[Lys^16,Lys^17,Glu^21, Leu^27] Glucagon peptide amide] (H-HSQGTFTSDYSKYLDK([AEEA-AEEA-γGlu-C18 diacid])KRAQEFVQWLLNT-NH2; N-terminus assumed) | 0.018 nM
CC(C)C[C@H](NC(=O)[C@H](Cc1c[nH]c2ccccc12)NC(=O)[C@H](CCCCNC(=O)COCCOCCNC(=O)COCCOCCNC(=O)CC[C@H](NC(=O)CCCCCCCCCCCCCCCCC(=O)O)C(=O)O)NC(=O)[C@@H](NC(=O)[C@H](Cc1ccccc1)NC(=O)[C@H](CC(=O)O)NC(=O)[C@H](CCC(N)=O)NC(=O)[C@H](C)NC(=O)[C@H](CCCNC(=N)N)NC(=O)[C@H](CCCNC(=N)N)NC(=O)[C@@H](NC(=O)[C@H](CC(=O)O)NC(=O)[C@H](CC(C)C)NC(=O)[C@H](Cc1ccc(O)cc1)NC(=O)[C@H](CCCCN)NC(=O)[C@H](CO)NC(=O)[C@H](Cc1ccc(O)cc1)NC(=O)[C@H](CC(=O)O)NC(=O)[C@H](CO)NC(=O)[C@@H](NC(=O)[C@H](Cc1ccccc1)NC(=O)[C@@H](NC(=O)CNC(=O)[C@H](CCC(N)=O)NC(=O)[C@H](CO)NC(=O)[C@@H](N)Cc1c[nH]cn1)[C@@H](C)O)[C@@H](C)O)[C@@H](C)O)C(C)C)C(=O)N[C@@H](CC(C)C)C(=O)N[C@@H](CO)C(=O)N[C@H](C(=O)O)[C@@H](C)O [Example 13] (H-HSQGTFTSDYSKYLDTRRAQDFVK([AEEA-AEEA-γGlu-C18 diacid])WLLST-OH; N-terminus and C-terminus assumed) | 0.016 nM
CC(C)C[C@H](NC(=O)[C@H](Cc1ccc(O)cc1)NC(=O)[C@H](CCCCN)NC(=O)[C@H](CO)NC(=O)[C@H](Cc1ccc(O)cc1)NC(=O)[C@H](CC(=O)O)NC(=O)[C@H](CO)NC(=O)[C@@H](NC(=O)[C@H](Cc1ccccc1)NC(=O)[C@@H](NC(=O)CNC(=O)[C@H](CCC(N)=O)NC(=O)[C@H](CO)NC(=O)[C@@H](N)Cc1c[nH]cn1)[C@@H](C)O)[C@@H](C)O)C(=O)N[C@@H](CC(=O)O)C(=O)N[C@@H](CO)C(=O)N[C@@H](CCCNC(=N)N)C(=O)N[C@@H](CCCNC(=N)N)C(=O)N[C@@H](C)C(=O)N[C@@H](CCC(N)=O)C(=O)N[C@@H](CC(=O)O)C(=O)N[C@@H](Cc1ccccc1)C(=O)N[C@H](C(=O)N[C@@H](CCC(N)=O)C(=O)N[C@@H](Cc1c[nH]c2ccccc12)C(=O)N[C@@H](CC(C)C)C(=O)N[C@@H](CC(C)C)C(=O)N[C@@H](CCCCNC(=O)CC[C@H](NC(=O)CC[C@H](NC(=O)COCCOCCNC(=O)COCCOCCNC(=O)CC[C@H](NC(=O)CCCCCCCCCCCCCCCCC(=O)O)C(=O)O)C(=O)O)C(=O)O)C(=O)N[C@H](C(=O)O)[C@@H](C)O)C(C)C [Example 52, N^ε28-([(4S)-5-hydroxy-4-[[(4S)-5-hydroxy-4-[[2-[2-[2-[[2-[2-[2-[[(4S)-5-hydroxy-4-[(18-hydroxy-18-oxooctadecanoyl)amino]-5-oxopentanoyl]amino]ethoxy]ethoxy]acetyl]amino]ethoxy]ethoxy]acetyl]amino]-5-oxopentanoyl]amino]-5-oxopentanoyl]) [Leu^27,Lys^28] Glucagon] | 0.055 nM

Next, values leading:

EC50 | Structure (SMILES)
0.109 nM | CC(C)C[C@H](NC(=O)[C@H](Cc1ccc(O)cc1)NC(=O)[C@H](CCCNC(=N)N)NC(=O)[C@H](CO)NC(=O)[C@H](Cc1ccc(O)cc1)NC(=O)[C@H](CC(=O)O)NC(=O)[C@H](CO)NC(=O)[C@@H](NC(=O)[C@H](Cc1ccccc1)NC(=O)[C@@H](NC(=O)CNC(=O)[C@H](CCC(N)=O)NC(=O)[C@H](CO)NC(=O)[C@@H](N)Cc1c[nH]cn1)[C@@H](C)O)[C@@H](C)O)C(=O)N[C@@H](CC(=O)O)C(=O)N[C@@H](CO)C(=O)N[C@@H](CCCNC(=N)N)C(=O)N[C@@H](CCCNC(=N)N)C(=O)N[C@@H](C)C(=O)N[C@@H](CCC(N)=O)C(=O)N[C@@H](CC(=O)O)C(=O)N[C@@H](Cc1ccccc1)C(=O)N[C@H](C(=O)N[C@@H](CCCCNC(=O)COCCOCCNC(=O)COCCOCCNC(=O)CC[C@H](NC(=O)CCCCCCCCCCCCCCCCC(=O)O)C(=O)O)C(=O)N[C@@H](Cc1c[nH]c2ccccc12)C(=O)N[C@@H](CC(C)C)C(=O)N[C@@H](CC(C)C)C(=O)N[C@@H](CC(N)=O)C(=O)N[C@H](C(=O)O)[C@@H](C)O)C(C)C [Example 47] (H-HSQGTFTSDYSRYLDSRRAQDFVK([AEEA-AEEA-γGlu-C18 diacid])WLLNT-OH; N-terminus and C-terminus assumed)
0.022 nM | CC(C)C[C@H](NC(=O)[C@H](Cc1ccc(O)cc1)NC(=O)[C@H](CCCCN)NC(=O)[C@H](CO)NC(=O)[C@H](Cc1ccc(O)cc1)NC(=O)[C@H](CC(=O)O)NC(=O)[C@H](CO)NC(=O)[C@@H](NC(=O)[C@H](Cc1ccccc1)NC(=O)[C@@H](NC(=O)CNC(=O)[C@H](CCC(N)=O)NC(=O)[C@H](CO)NC(=O)[C@@H](N)Cc1c[nH]cn1)[C@@H](C)O)[C@@H](C)O)C(=O)N[C@@H](CC(=O)O)C(=O)N[C@@H](CO)C(=O)N[C@@H](CCCCN)C(=O)N[C@@H](CCCNC(=N)N)C(=O)N[C@@H](C)C(=O)N[C@@H](CCC(N)=O)C(=O)N[C@@H](CCC(=O)O)C(=O)N[C@@H](Cc1ccccc1)C(=O)N[C@H](C(=O)N[C@@H](CCCCNC(=O)COCCOCCNC(=O)COCCOCCNC(=O)CC[C@H](NC(=O)CCCCCCCCCCCCCCCCC(=O)O)C(=O)O)C(=O)N[C@@H](Cc1c[nH]c2ccccc12)C(=O)N[C@@H](CC(C)C)C(=O)N[C@@H](CC(C)C)C(=O)N[C@@H](CC(N)=O)C(=O)N[C@H](C(=O)O)[C@@H](C)O)C(C)C [Example 4] (H-HSQGTFTSDYSKYLDSKRAQEFVK([AEEA-AEEA-γGlu-C18 diacid])WLLNT-OH; N-terminus and C-terminus assumed)

From US20160271263A1 (Novo Nordisk A/S, priority 2010, published 2016)
